Data reported in patent US8389680B2, “Treatment of Aspergillus infections with alpha thymosin peptides” (SciClone Pharmaceuticals, Inc., priority 2003, dated 2013).

Key:
[1] = tested on: p38 and NF-kB; assay: Analysis of p38 and NF-kB activation on lung DCs; format: cell-based, murine
Procedure: P38 and NF-kB were activated on lung DCs by exposure for 20 minutes at 37° C. to Aspergillus conidia and/or 100 ng/ml TA1. Blots of cell lysates were incubated with rabbit polyclonal Abs recognizing either the unphosphorylated form of p38 MAPK, or the double-phosphorylated (Thr-180/Tyr-182) p38 MAPK, or Abs specific for the Rel A, 65 kDa DNA binding subunit of human NF-kB followed by horseradish peroxidase-conjugated goat anti-rabbit IgG, as per manufacturer's instructions. Blots were developed with an Enhanced Chemiluminescence detection kit. Bands were visualized after exposure of the blots to a Kodak RX film. To ensure similar protein loading in each lane, the phospho blots were stripped and the membranes were reprobed with Abs against p38 and NF-kB.

[2] = tested on: human MDC and PDC subsets; assay: Activation of human MDC and PDC subsets: phagocytosis, phenotype, cytokine release; format: cell-based; conditions: in response to conidia
Procedure: Blood CD 11c^+ myeloid DCs (MDCs) were generated from CD 14^+ mononuclear cells by magnetic cell sorting and cultured for 5 days in Iscove's modified medium, containing 10% fetal bovine serum, 50 micromolar 2-mercaptoethanol, sodium pyruvate (1 mM), 2 mM L-glutamine, HEPES (10 mM), and 50 micrograms/ml gentamycin in the presence of 50 ng/ml rHuman GM-CSF and 200 U/ml rHuman IL-4. Immature MDCs were cultured for 24 hours with 1000 ng/ml trimeric human CD40 ligand-leucine-zipper fusion protein to obtain mature DCs. CD 123^+ plasmacytoid DCs (PDCs) were isolated using the BDCA-4 isolation kit. Purity of CD 123^+ cells was >96%. For mature PDCs, immature DCs were cultured with the trimeric human CD40 ligand as above and 10 ng/ml IL-3. […] The expression of HLA Class II, CD80 and CD86 was high in both immature and mature DCs. Murine lung CD 11c^+ DCs (between 5 to 7% positive for CD8alpha and between 30 to 35% positive for Gr-1) were isolated by magnetic cell sorting. For phagocytosis, DCs were pre-exposed to 100 ng/ml TA1 for 60 minutes and subsequently incubated at 37° C. with Aspergillus conidia for an additional 60 minutes. The percentage of internalization was calculated and photographs were taken. In assessing functional maturation and cytokine determination, purified DCs were resuspended in Iscove's medium (with no serum but with polymixin B, to avoid non-specific activation by serum components and endotoxin) and pulsed with 100 ng/ml TA1 for 24 hours either alone or together with TLR ligands or unopsonized Aspergillus conidia. Cell surface phenotype was assessed by reacting samples with FITC- or PE-conjugated rat anti-mouse antibodies. Unrelated hisotype matched antibodies were used as control. The levels of TNF-alpha, IL-10, IL-12 p70, IFN-alpha and IL-8 in culture supernatants were determined by Kit ELISAs. The detection limits (pg/ml) of the assays were <3 (human) and <32 (murine) for TNF-alpha, <12 (murine) and <5 (human) for IL-10, <16 (murine) and <3 (human) for IL-12 p70 and <25 (human) IL-8. For human IFN-alpha <3 ng/ml. For enumeration of cytokine-producing cells, an ELISPOT assay was used on purified CD4^+ T cells and DCs from lungs.

[3] = tested on: murine DCs; assay: RT-PCR of TLR expression on DCs; format: cell-based
Procedure: Synthesis and PCR of cDNA were performed with forward and reverse PCR primers and the cycles used for murine and human TLRs and HPRT. The synthesized PCR products were separated by electrophoresis on 2% agarose gel and visualized by ethidium bromide staining.

[4] = tested on: A. fumigatus; assay: BMT mice with invasive aspergillosis: survival, fungal growth in lungs (chitin assay), lung histology; format: in vivo; conditions: G-CSF 250 microgram/kg intravenously
Text: For infection with A. fumigatus, mice were intranasally injected for 3 consecutive days with a suspension of 2×10^7 conidia/20 microliter saline. For the quantification of fungal growth in the lungs, the chitin assay was used. The chitin content was expressed as micrograms of glucosamine per organ. The glucosamine content of lungs from uninfected mice was used as a negative control ranging between 0.80 and 2.25 microgram glucosamine/organ. For histological analysis, lungs were excised and immediately fixed in formalin. Sections (3 to 4 micron) of paraffin-embedded tissues were stained with the periodic acid-Schiff procedure. Thymosin alpha 1 (TA1) and the scrambled polypeptide are as purified sterile lyophilized acetylated polypeptides with endotoxin levels less than 0.03 pg/ml, by a standard limulus lysate assay. The sequences were as follows: Ac-[…]O (Thymosin alpha 1, SEQ ID NO.: 1) and Ac-[…]OH ([…]). Their lyophilized powders were reconstituted in sterile water.
The treatments were as follows; in BMT-mice, TA1, at different doses administered intraperitoneally, sthymosin alpha 1, 400 microgram/kg administered intraperitoneally or human recombinant G-CSF 250 microgram/kg administered intravenously, were given daily beginning the day of the BM infusion, in concomitance with the infection and continuing for an additional 3 days. Amphotericin B was given daily for 3 days in concomitance with the infection, at a dose of 4000 microgram/kg, administered intraperitoneally. This dose would cure IA in cyclophosphamide-treated mice. Cyclophosphamide, 150 mg/kg administered intraperitoneally, was given a day before the infection. In cyclophosphamide-treated mice, 400 microgram/kg TA1 was given intraperitoneally for 5 consecutive days beginning the day of the infection.
C57BL6 mice were exposed to a lethal dose of 9 Gy and infused with T cell-depleted donor cells from BALB/c mice.

[5] = combined exposure to conidia and peptide

Question: `Oc1ccc(-c2nc(-c3ccncc3)c(-c3ccc(F)cc3)[nH]2)cc1` [SB202190] was tested. Which “effect of inhibitor on the effect of TA1 on DCs” value ([1]; inhibitor given with TA1) did it give?
Answer: The value was “ablate the effect of TA1 on DCs”.

Question: How did the p38 phosphorylation ([1]; peptide alone, 20 minutes) turn out when “Ac-Ala-Lys-Ser-Asp-Val-Lys-Ala-Glu-Thr-Ser-Ser-Glu-Ile-Asp-Thr-Thr-Glu-Leu-Asp-Glu-Lys-Val-Glu-Val-Lys-Ala-Asn-Glu-OH (Ac-AKSDVKAETSSEIDTTELDEKVEVKANE-OH) [scrambled peptide]” was run?
Answer: The p38 phosphorylation was “not stimulated”.

Question: What about the p38 phosphorylation ([1]; scrambled peptide plus conidia) of the same molecule?
Answer: The p38 phosphorylation was “not stimulated”.

Question: What about the “HLA Class II antigens and costimulatory molecule expression” value [2] of the same molecule?
Answer: Its value is “failed to up-regulate”.

Question: What about the “cytokine production by DCs” value [2] of the same molecule?
Answer: The value was “failed”.

Question: What about the “expression of TLR2” value [3, 5] of the same molecule?
Answer: The value was “failed to activate”.

Question: What about the “expression of TLR9” value [3, 5] of the same molecule?
Answer: The value was “failed to activate”.

Question: And the “expression of TLR2” value ([3]; peptide alone)?
Answer: The value was “failed to activate”.

Question: What about the “expression of TLR9” value ([3]; peptide alone) of the same molecule?
Answer: Its value is “failed to activate”.

B1: G-CSF: human recombinant G-CSF, known to accelerate neutrophil recovery in mice (protein, UniProt P09919 31-207, looked up)
Granulocyte …: TPLGPASSLPQSFLLKCLEQVRKIQGDGAALQEKLVSECATYKLCHPEELVLLGHSLGIPWAPLSSCPSQALQLAGCLSQLHSGLFLYQGLLQALEGISPELGPTLDTLQLDVADFATTIWQQMEELGMAPALQPTQGAMPAFASAFQRRAGGVLVASHLQSFLEVSYRVLRHLAQP
Question: Which “antifungal resistance by recovery from neutropenia alone, compared with TA1” value [4] does the source give for B1 here?
Answer: Its value is “not sufficient”.
